Test results published in patent publication US20230233569A1 (Revolution Medicines, Inc., priority 2020, published 2023).
pIC50: −log10 of the molar value. Where two headings read alike, the source gives them in different places.

Assays:
Experiment in all cases: Ras-Raf disruption / FRET / MOA assay (BRAF RBD)
Format in all cases: biochemical
[1] = target: KRAS G12V (Homo sapiens, UniProt P01116+P62937, G12V); details: with Cyclophilin A
Excerpt: (§1) Disruption of […] Ras-binding Domain (BRAF^RBD) Interaction with K-Ras by Compounds of the Invention (also Called a FRET Assay or an MOA Assay)
(§2) Note—The following protocol describes a procedure for monitoring disruption of K-Ras G12C (GMP-PNP) binding to BRAF^RBD by a compound of the invention. This protocol may also be executed substituting other Ras proteins or nucleotides, such as K-Ras G12D and K-Ras G13D.
(§3) The purpose of this biochemical assay was to measure the ability of test compounds to facilitate ternary complex formation between a nucleotide-loaded K-Ras isoform and Cyclophilin A; the resulting ternary complex disrupts binding to a BRAF^RBD construct, inhibiting K-Ras signaling through a RAF effector. Data is reported as IC50 values.
(§4) In assay buffer containing 25 mM HEPES pH 7.3, 0.002% Tween20, 0.1% BSA, 100 mM NaCl and 5 mM MgCl2, tagless Cyclophilin A, His6-K-Ras-GMPPNP, and GST-BRAF^RBD were combined in a 384-well assay plate at final concentrations of 25 μM, 12.5 nM, and 50 nM, respectively. Compound was present in plate wells as a 10-point 3-fold dilution series starting at a final concentration of 30 μM. After incubation at 25° C. for 3 hours, a mixture of anti-His Eu-W1024 and anti-GST allophycocyanin was then added to assay sample wells at final concentrations of 10 nM and 50 nM, respectively, and the reaction incubated for an additional 1.5 hours. […] Compounds that facilitate disruption of a K-Ras:RAF complex were identified as those eliciting a decrease in the TR-FRET ratio relative to DMSO control wells.

[2] = target: KRAS G13D (Homo sapiens, UniProt P01116+P62937, G13D); details: with Cyclophilin A
KRAS G13D, sequence (P01116 1-169 isoform P01116-2 G13D limits assumed): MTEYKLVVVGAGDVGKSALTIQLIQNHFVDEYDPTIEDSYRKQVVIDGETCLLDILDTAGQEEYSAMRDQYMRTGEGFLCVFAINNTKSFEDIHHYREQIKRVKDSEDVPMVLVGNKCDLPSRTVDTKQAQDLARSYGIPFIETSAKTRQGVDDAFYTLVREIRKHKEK
KRAS G13D, sequence (P62937 whole entry): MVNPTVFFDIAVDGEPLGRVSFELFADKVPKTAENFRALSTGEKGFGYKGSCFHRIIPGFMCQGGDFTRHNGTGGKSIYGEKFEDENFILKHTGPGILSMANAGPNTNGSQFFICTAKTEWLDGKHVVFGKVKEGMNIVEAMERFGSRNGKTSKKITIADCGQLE
Excerpt: as §1, §2, §3, §4

[3] = target: NRAS G12C (Homo sapiens, UniProt P01111+P62937, G12C)
NRAS G12C, sequence (P01111 whole entry G12C): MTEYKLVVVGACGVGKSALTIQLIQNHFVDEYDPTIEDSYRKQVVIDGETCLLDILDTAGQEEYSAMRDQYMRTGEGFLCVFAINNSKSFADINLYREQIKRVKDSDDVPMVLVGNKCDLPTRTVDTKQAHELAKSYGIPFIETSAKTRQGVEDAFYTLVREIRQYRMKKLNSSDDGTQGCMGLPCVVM
NRAS G12C, sequence (P62937 whole entry): as the sequence (P62937 whole entry) above
Excerpt: as §1, §2, §3, §4

[4] = target: KRAS WT (Homo sapiens, UniProt P01116+P62937); details: with Cyclophilin A
KRAS WT, sequence (P01116 1-169 isoform P01116-2 limits assumed): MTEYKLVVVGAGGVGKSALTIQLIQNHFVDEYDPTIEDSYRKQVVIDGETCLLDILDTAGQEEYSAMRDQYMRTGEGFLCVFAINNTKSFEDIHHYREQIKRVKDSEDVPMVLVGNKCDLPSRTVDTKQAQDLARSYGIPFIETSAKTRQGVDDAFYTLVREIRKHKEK
KRAS WT, sequence (P62937 whole entry): as the sequence (P62937 whole entry) above
Excerpt: as §1, §2, §3, §4

[5] = target: KRAS G12S (Homo sapiens, UniProt P01116+P62937, G12S); details: with Cyclophilin A
KRAS G12S, sequence (P01116 1-169 isoform P01116-2 G12S limits assumed): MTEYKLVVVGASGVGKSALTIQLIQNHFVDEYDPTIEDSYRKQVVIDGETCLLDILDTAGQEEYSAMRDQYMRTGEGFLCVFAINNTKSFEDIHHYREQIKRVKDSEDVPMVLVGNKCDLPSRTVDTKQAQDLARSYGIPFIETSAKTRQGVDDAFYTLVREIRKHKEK
KRAS G12S, sequence (P62937 whole entry): as the sequence (P62937 whole entry) above
Excerpt: as §1, §2, §3, §4

[6] = target: KRAS G12D (Homo sapiens, UniProt P01116+P62937, G12D); details: with Cyclophilin A
KRAS G12D, sequence (P01116 1-169 isoform P01116-2 G12D limits assumed): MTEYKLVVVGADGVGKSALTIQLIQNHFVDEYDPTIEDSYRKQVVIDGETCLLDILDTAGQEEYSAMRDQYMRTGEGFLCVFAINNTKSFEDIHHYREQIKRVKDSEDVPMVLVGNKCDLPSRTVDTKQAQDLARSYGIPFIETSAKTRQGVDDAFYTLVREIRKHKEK
KRAS G12D, sequence (P62937 whole entry): as the sequence (P62937 whole entry) above
Excerpt: as §1, §2, §3, §4

[7] = target: KRAS G13C (Homo sapiens, UniProt P01116+P62937, G13C); details: with Cyclophilin A
KRAS G13C, sequence (P01116 1-169 isoform P01116-2 G13C limits assumed): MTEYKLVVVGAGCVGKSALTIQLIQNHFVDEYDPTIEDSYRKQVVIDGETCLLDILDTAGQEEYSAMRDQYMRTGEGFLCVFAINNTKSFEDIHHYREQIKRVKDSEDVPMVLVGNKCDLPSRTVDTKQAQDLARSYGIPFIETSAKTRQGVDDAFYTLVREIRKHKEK
KRAS G13C, sequence (P62937 whole entry): as the sequence (P62937 whole entry) above
Excerpt: as §1, §2, §3, §4

[8] = target: KRAS G12C (Homo sapiens, UniProt P01116+P62937, G12C); details: with Cyclophilin A
KRAS G12C, sequence (P01116 1-169 isoform P01116-2 G12C limits assumed): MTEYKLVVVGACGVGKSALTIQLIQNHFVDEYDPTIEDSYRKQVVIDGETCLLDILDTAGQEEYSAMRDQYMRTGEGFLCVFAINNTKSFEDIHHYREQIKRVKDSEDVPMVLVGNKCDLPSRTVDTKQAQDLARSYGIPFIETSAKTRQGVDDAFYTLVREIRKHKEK
KRAS G12C, sequence (P62937 whole entry): as the sequence (P62937 whole entry) above
Excerpt: as §1, §2, §3, §4
as §3, with “is” for “was”, “Ras” for “K-Ras”, “cyclophilin” for “Cyclophilin”, “effector.” for “effector. Data is reported as IC50 values.”
In assay buffer containing 25 mM HEPES pH 7.3, 0.002% Tween20, 0.1% BSA, 100 mM NaCl and 5 mM MgCl2, tagless Cyclophilin A, His6-K-Ras-GMPPNP (or other Ras variant), and GST-BRAF^RBD are combined in a 384-well assay plate at final concentrations of 25 μM, 12.5 nM and 50 nM, respectively. Compound is present in plate wells as a 10-point 3-fold dilution series starting at a final concentration of 30 μM. After incubation at 25° C. for 3 hours, a mixture of Anti-His Eu-W1024 and anti-GST allophycocyanin is then added to assay sample wells at final concentrations of 10 nM and 50 nM, respectively, and the reaction incubated for an additional 1.5 hours. […] Compounds that facilitate disruption of a Ras:RAF complex are identified as those eliciting a decrease in the TR-FRET ratio relative to DMSO control wells.

[9] = KRAS G12V FRET data IC50, Ras-Raf disruption
[10] = KRAS G13D FRET data IC50, Ras-Raf disruption
[11] = NRAS G12C FRET data IC50, NRAS G12C
[12] = KRAS WT FRET data IC50, Ras-Raf disruption
[13] = KRAS G12S FRET data IC50, Ras-Raf disruption
[14] = KRAS G12D FRET data IC50, Ras-Raf disruption
[15] = KRAS G13C FRET data IC50, Ras-Raf disruption
[16] = KRAS G12C FRET data IC50, Ras-Raf disruption
[17] = Ras-Raf disruption, read-out: KRAS G12V FRET data IC50
[18] = Ras-Raf disruption, read-out: KRAS G13D FRET data IC50
[19] = NRAS G12C, read-out: NRAS G12C FRET data IC50
[20] = Ras-Raf disruption, read-out: KRAS WT FRET data IC50
[21] = Ras-Raf disruption, read-out: KRAS G12S FRET data IC50
[22] = Ras-Raf disruption, read-out: KRAS G12D FRET data IC50
[23] = Ras-Raf disruption, read-out: KRAS G13C FRET data IC50
[24] = Ras-Raf disruption, read-out: KRAS G12C FRET data IC50

KRAS G12V, sequence (P01116 1-169 isoform P01116-2 G12V limits assumed): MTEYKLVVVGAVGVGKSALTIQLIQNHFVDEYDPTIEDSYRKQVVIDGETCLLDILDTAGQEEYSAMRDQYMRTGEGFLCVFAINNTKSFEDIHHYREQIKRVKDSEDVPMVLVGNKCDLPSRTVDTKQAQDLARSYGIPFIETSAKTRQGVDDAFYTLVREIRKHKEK
KRAS G12V, sequence (P62937 whole entry, the tested form may be a part): as the sequence (P62937 whole entry) above

Structure (SMILES)	pIC50 [1, 9]	pIC50 [2, 10]	pIC50 [3, 11]	pIC50 [4, 12]	pIC50 [5, 13]	pIC50 [6, 14]	pIC50 [7, 15]	pIC50 [8, 16]	pIC50 [1, 17]	pIC50 [2, 18]	pIC50 [3, 19]	pIC50 [4, 20]	pIC50 [5, 21]	pIC50 [6, 22]	pIC50 [7, 23]	pIC50 [8, 24]
CCn1c(-c2cccnc2[C@H](C)OC)c2c3cc(ccc31)-c1cc(O)cc(c1)C[C@H](NC(=O)[C@H](C(C)C)N1CC[C@@H](NC(=O)[C@H]3CN3)C1=O)C(=O)N1CCC[C@H](N1)C(=O)OCC(C)(C)C2 [Example 130]	6.00 to 7.00	7.00 to 8.00	7.00 to 8.00	7.00 to 8.00	7.00 to 8.00	6.00 to 7.00	7.00 to 8.00	7.00 to 8.00	–	–	–	–	–	–	–	–
CCn1c(-c2cccnc2[C@H](C)OC)c2c3cc(ccc31)-c1cc(O)cc(c1)C[C@H](NC(=O)[C@H](C(C)C)N(C)C(=O)N1CCN(C(=O)[C@H]3CN3)CC1)C(=O)N1CCC[C@H](N1)C(=O)OCC(C)(C)C2 [Example 177, 4-((R)-aziridine-2-carbonyl)-N-((2S)-1-(((6^3S,4S)-1^1-ethyl-2^5-hydroxy-1^2-(2-((S)-1-methoxyethyl)pyridin-3-yl)-10,10-dimethyl-5,7-dioxo-6^1,6^2,6^3,6^4,6^5,6^6-hexahydro-1^1H-8-oxa-1(5,3)-indola-6(1,3)-pyridazina-2(1,3)-benzenacycloundecaphane-4-yl)amino)-3-methyl-1-oxobutan-2-yl)-N-methylpiperazine-1-carboxamide]	–	–	–	–	–	–	–	–	7.00 to 8.00	7.00 to 8.00	7.00 to 8.00	7.00 to 8.00	7.00 to 8.00	6.00 to 7.00	7.00 to 8.00	7.00 to 8.00
CCn1c(-c2cccnc2[C@H](C)OC)c2c3cc(ccc31)-c1cc(O)cc(c1)C[C@H](NC(=O)[C@H](C(C)C)N1CCC3(CN(C(=O)[C@@H]4CN4)C3)C1=O)C(=O)N1CCC[C@H](N1)C(=O)OCC(C)(C)C2 [Example 109]	–	–	–	–	–	–	–	–	6.00 to 7.00	7.00 to 8.00	> 8.00	7.00 to 8.00	6.00 to 7.00	5.00 to 6.00	7.00 to 8.00	> 8.00
CCn1c(-c2cccnc2[C@H](C)OC)c2c3cc(ccc31)-c1cc(O)cc(c1)C[C@H](NC(=O)[C@H](C(C)C)N(C)C(=O)c1ncc(NC(=O)[C@H]3CN3)n1C)C(=O)N1CCC[C@H](N1)C(=O)OCC(C)(C)C2 [Example 84]	–	–	–	–	–	–	–	–	6.00 to 7.00	6.00 to 7.00	7.00 to 8.00	6.00 to 7.00	6.00 to 7.00	5.00 to 6.00	> 8.00	7.00 to 8.00
CCn1c(-c2cccnc2[C@H](C)OC)c2c3cc(ccc31)-c1cc(O)cc(c1)C[C@H](NC(=O)[C@H](C(C)C)N(C)C(=O)[C@H]1CN1)C(=O)N1CCC[C@H](N1)C(=O)OCC(C)(C)C2 [Example 112]	–	–	–	–	–	–	–	–	6.00 to 7.00	6.00 to 7.00	6.00 to 7.00	7.00 to 8.00	6.00 to 7.00	6.00 to 7.00	7.00 to 8.00	6.00 to 7.00
CCn1c(-c2cccnc2[C@H](C)OC)c2c3cc(ccc31)-c1cc(O)cc(c1)C[C@H](NC(=O)[C@H](C(C)C)N1CCC3(CCN(C(=O)[C@H]4CN4)C3)C1=O)C(=O)N1CCC[C@H](N1)C(=O)OCC(C)(C)C2 (some centres unmarked) [Example 59]	–	–	–	–	–	–	–	–	7.00 to 8.00	6.00 to 7.00	> 8.00	7.00 to 8.00	7.00 to 8.00	7.00 to 8.00	7.00 to 8.00	7.00 to 8.00
CCn1c(-c2cccnc2[C@H](C)OC)c2c3cc(ccc31)-c1cc(O)cc(c1)C[C@H](NC(=O)[C@H](C(C)C)N(C)C(=O)c1ccc(NC(=O)[C@@H]3CN3)cn1)C(=O)N1CCC[C@H](N1)C(=O)OCC(C)(C)C2 (atropisomer, axis not shown) [Example 187]	–	–	–	–	–	–	–	–	6.00 to 7.00	6.00 to 7.00	6.00 to 7.00	6.00 to 7.00	6.00 to 7.00	6.00 to 7.00	7.00 to 8.00	6.00 to 7.00
CCn1c(-c2cccnc2[C@H](C)OC)c2c3cc(ccc31)-c1cc(O)cc(c1)C[C@H](NC(=O)[C@H](C(C)C)N(C)C(=O)[C@@H]1CN1)C(=O)N1CCC[C@H](N1)C(=O)OCC(C)(C)C2 [Example 100]	–	–	–	–	–	–	–	–	7.00 to 8.00	7.00 to 8.00	7.00 to 8.00	7.00 to 8.00	7.00 to 8.00	6.00 to 7.00	7.00 to 8.00	7.00 to 8.00
CCn1c(-c2cnccc2COC)c2c3cc(ccc31)-c1cc(O)cc(c1)C[C@H](NC(=O)[C@H](C(C)C)N(C)C(=O)CN(C)C(=O)[C@H]1[C@@H](C(=O)OC)N1[S@+]([O-])C(C)(C)C)C(=O)N1CCC[C@H](N1)C(=O)OCC(C)(C)C2 (some centres unmarked) [Example 48]	–	–	–	–	–	–	–	–	7.00 to 8.00	6.00 to 7.00	7.00 to 8.00	6.00 to 7.00	7.00 to 8.00	6.00 to 7.00	7.00 to 8.00	7.00 to 8.00
CCn1c(-c2cccnc2[C@H](C)OC)c2c3cc(ccc31)-c1cc(O)cc(c1)C[C@H](NC(=O)[C@H](C(C)C)N(C)C(=O)[C@@]1(F)CCN(C(=O)[C@@H]3CN3)C1)C(=O)N1CCC[C@H](N1)C(=O)OCC(C)(C)C2 (atropisomer, axis not shown) [Example 185]	–	–	–	–	–	–	–	–	6.00 to 7.00	6.00 to 7.00	7.00 to 8.00	6.00 to 7.00	6.00 to 7.00	6.00 to 7.00	7.00 to 8.00	7.00 to 8.00
CCn1c(-c2cccnc2[C@H](C)OC)c2c3cc(ccc31)-c1cc(O)cc(c1)C[C@H](NC(=O)[C@H](C(C)C)N(C)C(=O)[C@H]1CCN1C(=O)[C@H]1CN1)C(=O)N1CCC[C@H](N1)C(=O)OCC(C)(C)C2 [Example 158]	7.00 to 8.00	7.00 to 8.00	7.00 to 8.00	7.00 to 8.00	7.00 to 8.00	6.00 to 7.00	7.00 to 8.00	7.00 to 8.00	–	–	–	–	–	–	–	–
CCn1c(-c2cccnc2[C@H](C)OC)c2c3cc(ccc31)-c1cc(O)cc(c1)C[C@H](NC(=O)[C@H](C(C)C)N(C)C(=O)[C@]1(F)CCN(C(=O)[C@@H]3CN3)C1)C(=O)N1CCC[C@H](N1)C(=O)OCC(C)(C)C2 (atropisomer, axis not shown) [Example 184]	–	–	–	–	–	–	–	–	6.00 to 7.00	6.00 to 7.00	> 8.00	6.00 to 7.00	6.00 to 7.00	6.00 to 7.00	7.00 to 8.00	> 8.00
CCn1c(-c2cccnc2[C@H](C)OC)c2c3cc(ccc31)-c1cc(O)cc(c1)C[C@H](NC(=O)[C@H](C(C)C)N(C)C(=O)CC1CN(C(=O)[C@H]3CN3)C1)C(=O)N1CCC[C@H](N1)C(=O)OCC(C)(C)C2 [Example 179]	–	–	–	–	–	–	–	–	6.00 to 7.00	6.00 to 7.00	7.00 to 8.00	6.00 to 7.00	6.00 to 7.00	6.00 to 7.00	7.00 to 8.00	7.00 to 8.00
